Consider 23 compounds from US20120165319A1, “INHIBITORS OF INTERLEUKIN-1 BETA CONVERTING ENZYME” (VERTEX PHARMACEUTICALS INCORPORATED, priority 1995, published 2012).

Where only a bound is given, the exact number is not on record here.

Assay [1] relates to IL-1β, human peripheral blood mononuclear cells (PBMC). In words: PBMC cell assay: IL-1β assay with human PBMC or enriched adherent mononuclear cells, LPS-stimulated. Format: cell-based. In short, it runs like this:
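Buffy-coat human PBMC at 6×10^6 cells/ml, or adherent monocytes enriched by 1 h adherence (2.5−3.0×10^5 cells/well), are given 5–6 compound dilutions bracketing the ICE Ki (final DMSO 0.1%) plus LPS at a final 5 ng/ml. They are incubated 16–18 hr at 37 °C, 5% CO2, and supernatant mature IL-1β is measured by ELISA, with duplicate cultures and duplicate ELISAs.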

For another assay, the target named is T1, ICE (Homo sapiens, UniProt P29466).
T1 sequence (P29466 120-297 limits assumed): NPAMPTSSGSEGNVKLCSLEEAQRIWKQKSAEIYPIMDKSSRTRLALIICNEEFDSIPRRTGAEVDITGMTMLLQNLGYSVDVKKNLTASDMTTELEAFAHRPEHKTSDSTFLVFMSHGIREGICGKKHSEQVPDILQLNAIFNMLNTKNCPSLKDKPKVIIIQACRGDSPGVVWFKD
T1 sequence (P29466 317-404 limits assumed): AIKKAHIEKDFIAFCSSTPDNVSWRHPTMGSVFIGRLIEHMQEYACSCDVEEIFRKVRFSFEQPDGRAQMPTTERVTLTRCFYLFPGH
Put plainly: Enzyme assay with UV-visible substrate (visible ICE assay, Succinyl-Tyr-Val-Ala-Asp-pNitroanilide). Format: biochemical. In short, it runs like this: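 Read-out is the rate of pNA chromophore release (mOD/min, linear fit) monitored at 405-603 nm over 20 min at 37° C. Substrate was succinyl-Tyr-Val-Ala-Asp-pNitroanilide, added after a 15 min room-temperature preincubation of ICE with inhibitor.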

Setting [2] is: Homo sapiens, PBMC, * = values obtained upon reassay.
[3] abbreviates: * = values obtained upon reassay.

By IC50 is commonly meant the concentration needed to halve the response being measured. A lower IC50 goes with greater potency. As usually defined, the Ki is the equilibrium dissociation constant of an inhibitor or competing ligand from its target. A high value points to a looser hold on the target. `O=C[C@H](CC(=O)O)NC(=O)[C@@H]1CCCN2C(=O)CCN(NC(=O)c3cc4ccccc4[nH]3)C(=O)N12` [Compound 1075, [3S(4S)]3-[6,10-Dioxo-7-(indole-2-carboxamido)-1,2,3,4,7,8,9,10-octahydro-6H-pyridazino[1,2-a][1,2,4]triazepine-4-carboxamido]-4-oxobutanoic acid] displayed an IC50 in assay [1] (Homo sapiens, PBMC, Table 17) of 5000 nM. The affinity on ICE (Table 17), expressed as Ki, was 120 nM.

Compound `O=C[C@H](CC(=O)O)NC(=O)[C@@H]1CCCN2C(=O)CCN(NC(=O)c3ccccc3)C(=O)N12` [Compound 265, [3S(4S)]3-(7-Benzamido-6,10-dioxo-1,2,3,4,7,8,9,10-octahydro-6H-pyridazino[1,2-a][1,2,4]triazepine-4-carboxamido)-4-oxobutanoic acid] came in with an IC50 in assay [1] (setting [2]) of 4300 nM. The compound further returned a Ki at ICE (Table 5) of 47 nM.

Consider `O=C[C@H](CC(=O)O)NC(=O)[C@@H]1CCCN2C(=O)CC[C@H](NC(=O)c3ccc(NC(=O)Cc4ccccc4)cc3)C(=O)N12` [Compound 486, [3S(1S,9S)]3-{6,10-Dioxo-1,2,3,4,7,8,9,10-octahydro-9-[4-(phenylacetamido)benzamido]-6H-pyridazino[1,2-a][1,2]diazepine-1-carboxamido}-4-oxobutanoic acid], for which the IC50 came to 570 nM in assay [1] (setting [3]) and 480 nM in assay [1] (setting [2]). Also, the affinity at ICE (Table 5) corresponds to a Ki of 2.3 nM.

`O=C1C[C@H](NC(=O)[C@@H]2CCCN3C(=O)CC[C@H](NC(=O)c4ccccc4)C(=O)N23)C(OCc2ccccc2)O1` (stereo partly drawn) [Compound 213e, [1S,9S(2RS,3S)]9-Benzoylamino-6,10-dioxo-1,2,3,4,7,8,9,10-octahydro-N-(2-benzyloxy-5-oxotetrahydrofuran-3-yl)-6H-pyridazino[1,2-a][1,2]-diazepine-1-carboxamide]: the IC50 in assay [1] (setting [2]) stood at 900 nM. At ICE (Table 5), this compound gave a Ki of 130 nM.

As to `Cc1ccccc1C(=O)N[C@H]1CCC(=O)N2CCC[C@@H](C(=O)N[C@H](C=O)CC(=O)O)N2C1=O` [Compound 404], the values for the IC50 in assay [1] (setting [3]) and in assay [1] (setting [2]) were 1800 nM and 1650 nM, respectively. This compound also displayed a Ki on ICE (Table 5) of 2.9 nM.

Regarding `N#C[C@H](CC(=O)O)NC(=O)[C@@H]1CCCN2C(=O)CC[C@H](NC(=O)c3ccccc3)C(=O)N12` [Compound 232e, [3S(1S,9S)]9-(Benzoylamino)-3-[6,10-dioxo-1,2,3,4,7,8,9,10-octahydro-6H-pyridazino-[1,2-a][1,2]diazepine-1-carboxamido]-3-cyanopropanoic acid], inhibition in assay [1] (setting [2]) was half-maximal at 4500 nM (IC50). Moreover, the inhibitory constant (Ki) on ICE (Table 5) is 1100 nM.

As to `O=C[C@H](CC(=O)O)NC(=O)[C@@H]1CCCN2C(=O)CC[C@H](NC(=O)c3cc4ccccc4[nH]3)C(=O)N12` [Compound 475, [3S(1S,9S)]3-[6,10-Dioxo-9-(indol-2-oylamino)-1,2,3,4,7,8,9,10-octahydro-6H-pyridazino[1,2-a][1,2]diazepine-1-carboxamido]-4-oxobutanoic acid], the 50% inhibitory concentration (IC50) was determined as 650 nM in assay [1] (setting [3]) and 690 nM in assay [1] (setting [2]). Moreover, the inhibition constant (Ki) on ICE (Table 5) worked out at 5.5 nM.

`O=C[C@H](CC(=O)O)NC(=O)[C@@H]1CCCN2C(=O)CCN(NS(=O)(=O)c3ccccc3)C(=O)N12` [Compound 1027, [3S(4S)]3-(6,10-Dioxo-1,2,3,4,7,8,9,10-octahydro-7-phenylsulphonylamino-6H-pyridazino[1,2-a][1,2,4]triazepine-4-carboxamido)-4-oxobutanoic acid] came in with an IC50 in assay [1] (setting [2]) of more than 20000 nM. Moreover, on ICE (Table 5), the affinity, expressed as Ki, was 4000 nM.

With `O=C1C[C@H](NC(=O)[C@@H]2CCCN3C(=O)CC[C@H](NC(=O)C(=O)c4ccccc4)C(=O)N23)C(OCc2ccccc2)O1` (stereo partly drawn) [Compound 2001, [1S,9S(2RS,3S)]9-Benzoylformylamino-6,10-dioxo-1,2,3,4,7,8,9,10-octahydro-N-(2(R,S)-benzyloxy-5-oxotetrahydrofuran-3-yl)-6H-pyridazino[1,2-a][1,2]-diazepine-1-carboxamide], in assay [1] (setting [2]), the IC50 is 1800 nM. Moreover, the affinity on ICE (Table 5) corresponds to a Ki of 135 nM.

For the compound `O=C1C[C@H](NC(=O)[C@@H]2CCCN3C(=O)CC[C@H](NC(=O)c4ccccc4)C(=O)N23)C(OCc2ccccc2)O1` (single isomer, unassigned) [Compound 2100n], it took 770 nM to reach half-maximal inhibition in assay [1] (Homo sapiens, PBMC, Table 17) (IC50). The inhibitory constant (Ki) on ICE (Table 17) came out at 670 nM.

Regarding `CN(C)c1cccc(C(=O)N[C@H]2CCC(=O)N3CCC[C@@H](C(=O)N[C@H](C=O)CC(=O)O)N3C2=O)c1` [Compound 470], the IC50 in assay [1] (setting [2]) turned out to be 500 nM. Besides, the Ki at ICE (Table 5) was found to be 5 nM.

Turning to `O=C[C@H](CC(=O)O)NC(=O)CN1C(=O)[C@@H](NC(=O)c2cc(Cl)c(O)c(Cl)c2)CN(C(=O)CO)c2ccccc21` [Compound 662, (3S)-3-[(3S)-2-Oxo-3-(3,5-dichloro-4-hydroxybenzoyl)amino-5-(2-hydroxy)acetyl-2,3,4,5-tetrahydro-1H-1,5-benzodiazepine-1-acetylamino]-4-oxo-butyric acid], the IC50 in assay [1] (Homo sapiens, PBMC, Table 17) worked out at 1800 nM. At ICE (Table 17), this compound yielded a Ki of 0.5 nM.

Take `O=C[C@H](CC(=O)O)NC(=O)[C@@H]1CCCN2C(=O)CC[C@H](NC(=O)c3ccccc3)C(=O)N12` [Compound 214e, [3S(1S,9S)]3-(9-Benzoylamino-6,10-dioxo-1,2,3,4,7,8,9,10-octahydro-6H-pyridazino[1,2-a][1,2]-diazepine-1-carboxamido)-4-oxobutanoic acid]: the IC50 in assay [1] (setting [2]) is 1600 nM. On ICE (Table 5), this compound yielded a Ki of 7.5 nM.

On to `O=C[C@H](CC(=O)O)NC(=O)[C@@H]1CCCN2C(=O)CC[C@H](NC(=O)c3nccc4ccccc34)C(=O)N12` [Compound 412, [3S(1S,9S)]3-[6,10-Dioxo-9-(isoquinolin-1-oylamino)-1,2,3,4,7,8,9,10-octahydro-6H-pyridazino[1,2-a][1,2]diazepine-1-carboxamido]-4-oxobutanoic acid], for which the concentration for half-maximal inhibition (IC50) was found to be 660 nM in assay [1] (setting [3]) and 580 nM in assay [1] (setting [2]). The same compound came in with a Ki at ICE (Table 5) of 1.3 nM.

For `COCC(=O)N1C[C@H](NC(=O)c2ccccc2)C(=O)N(CC(=O)N[C@H](C=O)CC(=O)O)c2ccccc21` [Compound 605e, (3S)-3-[(3S)-2-Oxo-3-benzoylamino-5-methoxyacetyl-2,3,4,5-tetrahydro-1H-1,5-benzodiazepin-1-acetylamino]-4-oxo-butyric acid], in assay [1] (setting [2]), the IC50 was found to be 2250 nM. This compound came in with an inhibitory constant (Ki) at ICE (Table 5) of 29 nM.

In assay [1] (Table 17), `Cc1cc(C(=O)N[C@H]2CCC(=O)N3CCC[C@@H](C(=O)N[C@H](C=O)CC(=O)O)N3C2=O)cc(C)c1O` [Compound 214w] displayed a half-maximal inhibitory concentration (IC50) of 620 nM. Further, on ICE (Table 17), affinity was put at a Ki of 0.6 nM.

The compound `CCOC1OC(=O)C[C@@H]1NC(=O)[C@@H]1CCCN2C(=O)CC[C@H](NC(=O)c3ccccc3)C(=O)N12` (stereo partly drawn) [Compound 2100e, [1S,9S(2RS,3S)]9-Benzoylamino-6,10-dioxo-1,2,3,4,7,8,9,10-octahydro-N-(2-ethoxy-5-oxo-tetrahydro-furan-3-yl)-6H-pyridazino[1,2-a][1,2]-diazepine-1-carboxamide] yielded a 50% inhibitory concentration (IC50) in assay [1] (setting [2]) of 800 nM. Also, the Ki at ICE (Table 5) came to 250 nM.

In assay [1] (setting [2]), `O=C[C@H](CC(=O)O)NC(=O)[C@@H]1CCCN2C(=O)CC[C@H](NC(=O)c3cc4ccsc4s3)C(=O)N12` [Compound 442] yielded an IC50 of 900 nM. The compound further had an inhibition constant Ki at ICE (Table 5) of 3.2 nM.

Compound `CC(=O)Nc1ccc(C(=O)NN2CCC(=O)N3CCC[C@@H](C(=O)N[C@H](C=O)CC(=O)O)N3C2=O)cc1` [Compound 1018, [3S(4S)]3-{7-[(4-Acetamido)benzamido]-6,10-Dioxo-1,2,3,4,7,8,9,10-octahydro-6H-pyridazino[1,2-a][1,2,4]-triazepine-4-carboxamido}-4-oxobutanoic acid] had a concentration for half-maximal inhibition (IC50) in assay [1] (Homo sapiens, PBMC, Table 17) of 4000 nM. The inhibition constant (Ki) on ICE (Table 17) worked out at 170 nM.

`O=C[C@H](CC(=O)O)NC(=O)CN1C(=O)[C@@H](NC(=O)c2ccccc2)CN(C(=O)CO)c2ccccc21` [Compound 668, (3S)-3-[(3S)-2-Oxo-3-benzoylamino-5-(2-hydroxy)acetyl-2,3,4,5-tetrahydro-1H-1,5-benzodiazepine-1-acetylamino]-4-oxo-butyric acid] came in with a concentration for half-maximal inhibition (IC50) in assay [1] (Homo sapiens, PBMC, Table 17) of 5200 nM. This compound displayed an inhibition constant Ki at ICE (Table 17) of 9 nM.

The compound `O=C1C[C@H](NC(=O)[C@@H]2CCCN3C(=O)CC[C@H](NC(=O)c4ccccc4)C(=O)N23)C(OCCc2ccccc2)O1` (mixture of isomers) [Compound 2100k, [1S,9S(2RS,3S)]9-Benzoylamino-6,10-dioxo-1,2,3,4,7,8,9,10-octahydro-N-(2-phenethyloxy-5-oxotetrahydrofuran-3-yl)-6H-pyridazino[1,2-a][1,2]diazepine-1-carboxamide] yielded a half-inhibitory concentration (IC50) in assay [1] (Homo sapiens, PBMC, Table 17) of 4000 nM. The compound also displayed a Ki on ICE (Table 17) of 520 nM.

Regarding `O=C1C[C@H](NC(=O)[C@@H]2CCCN3C(=O)CC[C@H](NC(=O)c4cccc5ccccc45)C(=O)N23)C(OCc2ccccc2)O1` (stereo partly drawn) [Compound 213v, [1S,9S(2RS,3S)]N-(2-Benzyloxy-5-oxotetrahydrofuran-3-yl)-6,10-dioxo-9-(naphth-1-oylamino)-1,2,3,4,7,8,9,10-octahydro-6H-pyridazino[1,2-a][1,2]diazepine-1-carboxamide], in assay [1] (Homo sapiens, PBMC, Table 17), inhibition was half-maximal at 1100 nM (IC50). The affinity on ICE (Table 17) corresponds to a Ki of 0.5 nM.

In assay [1] (setting [2]), `CC(C)(C)OC(=O)C[C@@H](C=O)NC(=O)[C@@H]1CCCN2C(=O)CC[C@H](NC(=O)c3ccccc3)C(=O)N12` [Compound 302, [3S(1S,9S)3-(9-Benzoylamino-6,10-dioxo-1,2,3,4,7,8,9,10-octahydro-6H-pyriazino-[1,2-a][1,2]diazapine-1-carboxamido)-amino]-4-oxobutanoic acid tert-butyl ester] had an IC50 of more than 20000 nM. The affinity on ICE (Table 5) corresponds to a Ki of 4500 nM.
